Assay results from patent publication US10968203B2, “Pyrimidinyl-pyridyloxy-naphthyl compounds and methods of treating IRE1-related diseases and disorders” (Genentech, Inc., priority 2017, dated 2021).
Where a name gives a salt, the structure may show the parent alone.

test system: XBP1s-luc 293 LUC; experiment: cellular PD assay, XBP1s-LUC reporter (Example 903); format: cell-based; settings: Table 1; read-out: XBP1s-luc 293 LUC (IC50)
Description: Inhibition of IRE1α RNase activity was determined in an enzyme assay that measured cleavage of the XBP1 stem loop by autophosphorylated IRE1α. This assay format was chosen to ensure that inhibitors of either the IRE1α kinase or the RNase domains would be identified. Binding to the ATP pocket and inhibition of IRE1α kinase activity are not necessarily required to inhibit the RNase activity. Compounds were also profiled in cellular assays by direct measurement of XBP s (B-DNA assay) or by quantification of the luciferase signal in HT1080 XBP1-Luc, which carries a luciferase fusion that is only in frame and expressed from the spliced XBP1 transcript.
Biological activity of Formula I or I′ compounds was measured by an IRE1 biochemical binding assay (Example 901), a biochemical RNase assay (Example 902), a cellular PD assay, XBP1s-LUC reporter (Example 903), and an IRE1α-based inhibition of multiple myeloma (MM) cell proliferation assay.
All of the exemplary Formula I or I′ compounds in Tables 1 and 2 were made and characterized by LCMS [M+H]^+ (liquid chromatography mass spectroscopy) with detection of parent ion. All of the exemplary Formula I compounds in Tables 1 and 2 were prepared according to the procedures of the Schemes, General Procedures, and Examples. All of the exemplary Formula I or I′ compounds in Tables 1 and 2 were tested for binding to IRE1 (inositol requiring enzyme 1 alpha) and biological activity according to the assays and protocols of Example 901-903. Exemplary Formula I or I′ compounds in Tables 1 and 2 have the following structures, corresponding IUPAC names (ChemBioDraw, Version 12.0.2, CambridgeSoft Corp., Cambridge Mass.), and biological activity. Where more than one name is associated with a Formula I or I′ compound or intermediate in Tables 1 and 2 and the Experimental Procedures, the chemical structure shall define the compound. Assignment of configuration at chiral centers in separated stereoisomers may be tentative, and depicted in Tables 1 and 2 structures for illustrative purposes, before stereochemistry is definitively established, such as from x-ray crystallographic data. In some cases, stereoisomers are separated and tested for biological activity before the stereochemistry of the separated stereoisomers is determined; and stereochemistry in some instances was inferred based on structure-activity relationship (SAR) knowledge from previous compounds. In some cases, the compounds are tested as racemic or diastereomeric mixtures. Where more than one potency value is entered on a row, separated stereoisomers represented by the structure and name on that row were tested. Exemplary compounds of Formula I or I′ in Table 3 can be prepared using methods known in the art or according to procedures similar to those described in the Schemes, General Procedures, and Examples 101-500. Biological activities of compounds in Table 3 can be tested in biological assays, for example, those in Examples 901, 902 and 903 described herein.

First: Cc1ccc2c(NC(=O)c3cccc(C(C)(C)C#N)c3)cccc2c1Oc1ncccc1-c1ccnc(N[C@H]2CCCNC2)n1 [Example 101, (S)-3-(2-Cyanopropan-2-yl)-N-(6-methyl-5-((3-(2-(piperidin-3-ylamino)pyrimidin-4-yl)pyridin-2-yl)oxy)naphthalen-1-yl)benzamide]
Second: Cc1ccc2c(NCC(C)(C)O)cccc2c1Oc1ncccc1-c1ccnc(N[C@H]2CCCNC2)n1 [Example 306, (S)-2-Methyl-1-((6-methyl-5-((3-(2-(piperidin-3-ylamino)pyrimidin-4-yl)pyridin-2-yl)oxy)naphthalen-1-yl)amino)propan-2-ol]
The IC50 of the first is 2.4-fold lower: 0.102 µM for the first, 0.24 µM for the second. The first is the more potent here.

Going from `Cc1ccc2c(NS(=O)(=O)Cc3ccc(F)cc3F)c(F)ccc2c1Oc1ncccc1-c1ccnc(N[C@H]2CCCNC2)n1` [Example 186, (S)-1-(2,4-Difluorophenyl)-N-(2-fluoro-6-methyl-5-((3-(2-(piperidin-3-ylamino)pyrimidin-4-yl)pyridin-2-yl)oxy)naphthalen-1-yl)methanesulfonamide] to `Cc1ccc2c(NS(=O)(=O)Cc3ccccc3C(F)(F)F)cccc2c1Oc1ncccc1-c1ccnc(N[C@H]2CCCNC2)n1` [Example 142, (S)—N-(6-Methyl-5-((3-(2-(piperidin-3-ylamino)pyrimidin-4-yl)pyridin-2-yl)oxy)naphthalen-1-yl)-1-(2-(trifluoromethyl)phenyl)methanesulfonamide], the IC50 rises from 0.00489 µM to 0.008 µM (1.6-fold). The first is the more potent here.

`Cc1ccc2c(Nc3nn(C)cc3F)cccc2c1Oc1ncccc1-c1ccnc(N[C@H]2CCCNC2)n1` [Example 360, (S)-4-(2-((5-((4-Fluoro-1-methyl-1H-pyrazol-3-yl)amino)-2-methylnaphthalen-1-yl)oxy)pyridin-3-yl)-N-(piperidin-3-yl)pyrimidin-2-amine] and `Cc1ccc2c(NC(=O)C3(F)CC3)cccc2c1Oc1ncccc1-c1ccnc(N[C@H]2CCCNC2)n1` [Example 155, (S)-1-Fluoro-N-(6-methyl-5-((3-(2-(piperidin-3-ylamino)pyrimidin-4-yl)pyridin-2-yl)oxy)naphthalen-1-yl)cyclopropane-1-carboxamide] are within 1.5-fold of each other in IC50: 0.455 µM for the first, 0.38 µM for the second.

Going from `Cc1ccc2c(NS(=O)(=O)CC(C)C)cccc2c1Oc1ncccc1-c1ccnc(N[C@@H]2CNC[C@H](C)C2)n1` [Example 304, 2-Methyl-N-(6-methyl-5-((3-(2-(((3S,5R)-5-methylpiperidin-3-yl)amino)pyrimidin-4-yl)pyridin-2-yl)oxy)naphthalen-1-yl)propane-1-sulfonamide] to `CCCS(=O)(=O)Nc1cccc2c(Oc3ncccc3-c3ccnc(N[C@@H]4CNC[C@@H](F)C4)n3)c(C)ccc12` [Example 165, N-(5-((3-(2-(((3S,5S)-5-Fluoropiperidin-3-yl)amino)pyrimidin-4-yl)pyridin-2-yl)oxy)-6-methylnaphthalen-1-yl)propane-1-sulfonamide], the IC50 rises from 0.105 µM to 0.164 µM (1.6-fold).

`Cc1ccc2c(NC(=O)C3CCCC3(F)F)cccc2c1Oc1ncccc1-c1ccnc(N[C@H]2CCCNC2)n1` (stereo partly drawn) [Example 251, 2,2-Difluoro-N-(6-methyl-5-((3-(2-(((S)-piperidin-3-yl)amino)pyrimidin-4-yl)pyridin-2-yl)oxy)naphthalen-1-yl)cyclopentane-1-carboxamide] and `Cc1ccc2c(NC(=O)C3CCCC3)cccc2c1Oc1ncccc1-c1ccnc(N[C@H]2CCCNC2)n1` [Example 187, (S)—N-(6-Methyl-5-((3-(2-(piperidin-3-ylamino)pyrimidin-4-yl)pyridin-2-yl)oxy)naphthalen-1-yl)cyclopentanecarboxamide] are within 1.5-fold of each other in IC50: 0.145 µM for the first, 0.157 µM for the second.

Going from `Cc1ccc2c(NS(=O)(=O)Cc3ccccc3)cccc2c1Oc1ncccc1-c1ccnc(NC2CNCCC2F)n1` (stereo not shown) [Example 162, N-(5-((3-(2-((4-Fluoropiperidin-3-yl)amino)pyrimidin-4-yl)pyridin-2-yl)oxy)-6-methylnaphthalen-1-yl)-1-phenylmethanesulfonamide] to `Cc1ccc2c(NS(=O)(=O)CC3CC3)cccc2c1Oc1ncccc1-c1ccnc(N[C@H]2CCCNC2)n1` [Example 124, (S)-1-Cyclopropyl-N-(6-methyl-5-((3-(2-(piperidin-3-ylamino)pyrimidin-4-yl)pyridin-2-yl)oxy)naphthalen-1-yl)methanesulfonamide hydrochloride], the IC50 rises from 0.067 µM to 0.105 µM (1.6-fold).

Compared with `Cc1ccc2c(N3CCCCCC3=O)cccc2c1Oc1ncccc1-c1ccnc(N[C@H]2CCCNC2)n1` [Example 249, (S)-1-(6-Methyl-5-((3-(2-(piperidin-3-ylamino)pyrimidin-4-yl)pyridin-2-yl)oxy)naphthalen-1-yl)azepan-2-one], `Cc1ccc2c(NC(=O)[C@@H]3C[C@H]3C(F)F)cccc2c1Oc1ncccc1-c1ccnc(N[C@H]2CCCNC2)n1` [Example 293, (1R,2R)-2-(Difluoromethyl)-N-(6-methyl-5-((3-(2-(((S)-piperidin-3-yl)amino)pyrimidin-4-yl)pyridin-2-yl)oxy)naphthalen-1-yl)cyclopropane-1-carboxamide] is 3.4-fold lower in IC50: 0.309 µM for the first, 0.0905 µM for the second.

First: Cc1ccc2c(NS(=O)(=O)CCC(F)(F)F)c(F)ccc2c1Oc1ncccc1-c1ccnc(N[C@@H]2CNC[C@H](C)C2)n1 [Example 311, 3,3,3-Trifluoro-N-(2-fluoro-6-methyl-5-((3-(2-(((3S,5R)-5-methylpiperidin-3-yl)amino)pyrimidin-4-yl)pyridin-2-yl)oxy)naphthalen-1-yl)propane-1-sulfonamide]
Second: Cc1ccc2c(NS(=O)(=O)CC(F)(F)F)c(F)ccc2c1Oc1ncccc1-c1ccnc(N[C@@H]2CNC[C@H](C)C2)n1 [Example 375, 2,2,2-Trifluoro-N-(2-fluoro-6-methyl-5-((3-(2-(((3S,5R)-5-methylpiperidin-3-yl)amino)pyrimidin-4-yl)pyridin-2-yl)oxy)naphthalen-1-yl)ethanesulfonamide]
The IC50 of the first is 2.1-fold lower: 0.00616 µM for the first, 0.0132 µM for the second.

For `Cc1ccc2c(NS(=O)(=O)CC(C)(C)C)cccc2c1Oc1ncccc1-c1ccnc(N[C@H]2CCCNC2)n1` [Example 139, (S)-2,2-Dimethyl-N-(6-methyl-5-((3-(2-(piperidin-3-ylamino)pyrimidin-4-yl)pyridin-2-yl)oxy)naphthalen-1-yl)propane-1-sulfonamide], the IC50 was 0.241 µM.

same assay, conditions: Table 2; read-out: XBP1s-luc 293 LUC (IC50)

`CCO[C@@H](CNc1cccc2c(Oc3ncccc3-c3ccnc(N[C@H]4CCCNC4)n3)c(C)ccc12)C(F)(F)F` [Example 445, 4-(2-((5-(((S)-2-Ethoxy-3,3,3-trifluoropropyl)amino)-2-methylnaphthalen-1-yl)oxy)pyridin-3-yl)-N—((S)-piperidin-3-yl)pyrimidin-2-amine hydrochloride] and `Cc1ccc2c(NCC(O)C(C)C)cccc2c1Oc1ncccc1-c1ccnc(N[C@H]2CCCNC2)n1` (single isomer, unassigned) [Example 462, hydrochloride] are within 1.5-fold of each other in IC50: 0.078 µM for the first, 0.11 µM for the second.

`Cc1ccc2c(NC(=O)CC(O)C(F)(F)F)cccc2c1Oc1ncccc1-c1ccnc(N[C@H]2CCCNC2)n1` (single isomer, unassigned) [Example 435] and `Cc1ccc2c(N3CCC(O)C3)cccc2c1Oc1ncccc1-c1ccnc(N[C@H]2CCCNC2)n1` (single isomer, unassigned) [Example 408] are within 1.5-fold of each other in IC50: 0.338 µM for the first, 0.47 µM for the second.

In the case of `Cc1ccc2c(NS(=O)(=O)Cc3ccccc3F)c(F)ccc2c1Oc1ncccc1-c1ccnc(N[C@@H]2CNC[C@@H](F)C2)n1` (single isomer, unassigned) [Example 464, hydrochloride], the IC50 is reported as 0.004 µM.
